In publication PMC2765639 (PLoS Neglected Tropical Diseases, 2009):
Like-named read-outs stand apart in the source and are kept apart here.

How the values were obtained:
[1] = test system: L. major promastigotes; assay: L. major promastigote drug susceptibility assay (alamar blue, 384-well); assay type: cell-based, Leishmania major; conditions: read-out: EC50 Ave ± SD, Lm
Protocol: Promastigotes were grown in vented T75 tissue culture flasks and maintained at 28°C. Promastigote cultures were initiated at 10^5 parasites per mL and subcultured every 3–4 days. L. major promastigote counts were performed in duplicate using a hemocytometer and particle counter (Beckman Coulter, Fullerton, CA). For HTS assays, L. major promastigote cultures were harvested during exponential growth phase (∼2.0–3.0×10^7 parasites/mL) and were not maintained past passage 20.
The final test compound concentration was 10 µM with a constant DMSO concentration of 1% in each assay well.
The L. major promastigote drug susceptibility assay was performed in a final volume of 25 µL using our previously described 384-well microtiter plate format,[39]. For automated HTS procedures, L. major promastigotes (5,000 parasites/22 µL) in complete growth medium were seeded into each well of the microtiter plates using a MAPC2 bulk dispenser (Titertek, Huntsville, AL). Test and control compounds (3 µL) were added to individual wells using a Velocity 11 V-prep (Menlo Park, CA) liquid handling system, equipped with a 384-well dispensing head, followed by centrifugation at 50 g for 1 min. […] Assay plates were allowed to incubate for 44 h at 28°C in the presence of 5% CO2. Five µL of alamar blue reagent were added to each assay plate well and incubated for 4 h at 28°C with 5% CO2. Data were captured on a Molecular Devices SpectraMax M5 (excitation560; emission590). Individual assay plate Z-factors were derived from the vehicle and positive controls, and data from plates were used only if Z-factors were >0.5 [50].
The assays were performed in duplicate with a final 10-point concentration range spanning 0.01–5.00 µM.

[2] = test system: L. major promastigotes; assay: Flow cytometer-based growth inhibition and cytotoxicity assay; conditions: Leishmania major, 48 h, read-out: L. major promastigote EC50 (AVE±SD) Confirmation Flow Cytometry
[3] = test system: L. major axenic amastigote-like population; assay: L. major axenic amastigote-like alamar blue assay (pH 4.9); assay type: cell-based, Leishmania major; conditions: Leishmania major, 144 h, pH 4.9, read-out: L. major axenic amastigote-like EC50 (AVE±SD) Confirmation Alamar Blue
[4] = test system: A549; assay: Mammalian cell line specificity assay (alamar blue); assay type: cell-based, human; conditions: Table S1, PMLSC library samples, read-out: EC50 Ave ± SD, A549
Protocol: Mammalian cells were cultured and maintained according to ATCC specifications (ATCC, Manassas, VA). Cell line drug susceptibility assays were performed in final volumes of 25 µL using our previously described 384-well microtiter plate format,[39]. […] Test and control compounds were added to individual wells as described above. Vehicle and positive controls were 1% DMSO and 10% DMSO, respectively (final well concentrations). Assay plates were incubated for 44–46 h at 37°C in the presence of 5% CO2 and growth inhibitory effects were determined as described above. Five µL of alamar blue reagent was added to each well and incubated for 2–4 h. Data were captured as described above.

[5] = Table S1, PMLSC library samples, 10-point 0.01–5.00 µM

| SMILES | EC50 [1, 5] | EC50 [4] | other results |
| --- | --- | --- | --- |
| Cc1[nH]c2c(Cl)cccc2c(=O)c1CN1CCCC1 [CID 728862] | – | – | EC50 ([1]; Leishmania major): 392 ± 50 nM; EC50 [2]: 1770 ± 120 nM; EC50 [3]: 4300 ± 800 nM; EC50 ([4]; Homo sapiens, A549): > 5000 nM |
| CCOC(=O)C(=Cc1cc(=O)c(OC)co1)C(=O)OCC [CID 1811924] | 166 ± 9 nM | > 5000 nM | – |
| COc1ccccc1-n1cnc2c(c1=O)c1nc3ccccc3nc1n2-c1ccc(C)c(C)c1 [CID 1987332] | 85 ± 5 nM | > 5000 nM | – |
| Fc1cccc(-c2nnn3c2nc(Cl)c2ccccc23)c1 [CID 2137463] | 499 ± 135 nM | > 5000 nM | – |
| O=S(=O)(CCSc1nc2ccccc2s1)c1nc2ccccc2s1 [CID 2194030] | 718 ± 86 nM | > 5000 nM | – |
| CC(C)(C)c1ccc(-n2nc(C#N)c(Cl)cc2=O)cc1 [CID 2766929] | 767 ± 160 nM | 3550 ± 582 nM | – |
| CCCCCCCCCCCCCCCCn1cc[n+](C)c1 [CID 2846928] | 35 ± 1 nM | 1640 ± 59 nM | – |
| CCCOC(=O)CSC1=C(C#N)C(c2ccccc2Cl)CC(=O)N1 (stereo not drawn) [CID 2855568] | 122 ± 12 nM | > 5000 nM | – |
| CCc1ccc(NSc2ccccc2[N+](=O)[O-])cc1 [CID 2856077] | 751 ± 110 nM | > 5000 nM | – |
| COCCCNCCCCOc1ccc(Br)cc1Cl [CID 2923184] | 60 ± 0.1 nM | > 5000 nM | – |
| O=C1CC(c2ccccc2Br)c2cc3c(cc2N1)CCC3 (stereo not drawn) [CID 2937831] | 255 ± 48 nM | > 5000 nM | – |
| COc1cc(CNCc2cccs2)ccc1OCc1ccccc1 [CID 2964134] | 164 ± 42 nM | > 5000 nM | – |
| COc1ccc(C2=NCC(CSc3nnc(-c4ccc5c(c4)OCO5)o3)S2)cc1 (stereo not drawn) [CID 2999476] | 187 ± 26 nM | > 5000 nM | – |
| O=[N+]([O-])c1ccc(NNC(=S)Nc2ccc(F)cc2)cc1 [CID 3127155] | 452 ± 74 nM | > 5000 nM | – |
| CCCc1nc2c(=O)n(C)c(=O)nc-2n(C)n1 [CID 3164059] | 218 ± 54 nM | 1060 ± 156 nM | – |
| COC(=O)c1cc2ccsc2n1Cc1nc(-c2ccc(OC)cc2)oc1C [CID 3236501] | 105 ± 10 nM | > 5000 nM | – |
| COC(=O)CNc1nc(-c2ccccc2F)nc2ccccc12 [CID 3237155] | 743 ± 62 nM | > 5000 nM | – |
| O=C(NCC(c1cccnc1)N1CCN(c2ccc(F)cc2)CC1)Oc1ccccc1 (stereo not drawn) [CID 3242548] | 111 ± 10 nM | > 5000 nM | – |
| CCC(C)(c1nnnn1-c1c(C)cccc1C)N(N=O)c1ccccc1Cl (stereo not drawn) [CID 3521510] | 326 ± 40 nM | > 5000 nM | – |
| N#CC(c1ccc(Cl)cc1)c1ccc2c(C(F)(F)F)cc(C(F)(F)F)nc2n1 (stereo not drawn) [CID 3564202] | 565 ± 35 nM | 2110 ± 77 nM | – |

| SMILES | EC50 [1, 5] | EC50 [4] | other results |
| --- | --- | --- | --- |
| COC(=O)C1CN(C#N)N(c2ccc(Cl)cc2)C12c1ccccc1-c1ccccc12 (stereo not drawn) [CID 3609942] | 73 ± 13 nM | 2750 ± 73 nM | – |
| CN(C)c1cc(NN=Cc2ccc(Cl)cc2)nc(N(C)C)n1 [CID 3769434] | 504 ± 66 nM | > 5000 nM | – |
| Cc1ccccc1-n1ncc2c([N+](=O)[O-])cc([N+](=O)[O-])cc21 [CID 3932660] | 61 ± 4 nM | > 5000 nM | – |
| O=C(c1cccnc1)N(c1cc2sc(=O)oc2c2ccccc12)S(=O)(=O)c1ccccc1 [CID 3980962] | 192 ± 2 nM | > 5000 nM | – |
| Cc1ccc2nc(Cl)c3nnnn3c2c1 [CID 4202676] | 767 ± 76 nM | > 5000 nM | – |
| COC(=O)c1cccc(Cn2c(Cl)c(C=NNc3ccccc3C)sc2=O)c1 [CID 4271960] | 545 ± 193 nM | > 5000 nM | – |
| Cc1nc([N+](=O)[O-])nn1C12CC3CC(CC(Cl)(C3)C1)C2 [CID 5032706] | 856 ± 33 nM | > 5000 nM | – |
| CC1=C(C(=O)Nc2cc(-c3cccc(F)c3)[nH]n2)C2(CCCCC2)OC1=O [CID 5309827] | 382 ± 56 nM | > 5000 nM | – |
| CCOC(=O)N=Nc1c2ccccc2c2nc3no[nH]c3nc12 [CID 5833488] | 788 ± 114 nM | 151 ± 10 nM | – |
| COC(=O)c1ccc(-c2ccc(CNCC(O)c3ccccc3)o2)cc1 (stereo not drawn) [CID 6602747] | 104 ± 27 nM | > 5000 nM | – |
| CC(C)CCN(C)C1CCN(S(=O)(=O)c2cccc(C(F)(F)F)c2)CC1 [CID 6602880] | 10 ± 3 nM | > 5000 nM | – |
| N=c1c2c(n(Cc3ccccc3)c3c1CCC3)CCC2 [CID 6603247] | 83 ± 5 nM | > 5000 nM | – |
| O=C1C2CCN(CC2)C1Cc1ccc(OCCOc2ccccc2)cc1 (stereo not drawn) [CID 6603672] | 274 ± 51 nM | > 5000 nM | – |
| C[C@H]1C[C@@H](C)C(=O)[C@@H]([C@H](O)CC2CC(=O)NC(=O)C2)C1 [CID 6604199] | 5 ± 0.1 nM | 1900 ± 1400 nM | – |
| c1ccc2c(c1)OC(CCCN1CCCCC1)c1ccccc1S2 (stereo not drawn) [CID 9549148] | 137 ± 40 nM | > 5000 nM | – |
| COC(=O)c1ccc2c(c1)C(C)(C)C(/C=C/c1ccc(OC)c(OC)c1OC)=[N+]2C [CID 9550329] | 50 ± 0.1 nM | > 5000 nM | – |
| CCCCCCCCCCCCCCCC[n+]1ccc(/C=N/O)cc1 [CID 11293258] | 10 ± 2 nM | 1300 ± 76 nM | – |
| O=C(COc1ccccc1F)NC1CCN(Cc2ccccc2)CC1 [CID 11834429] | 142 ± 32 nM | > 5000 nM | – |
| Cc1ccccc1NC1=C/C(=N\S(=O)(=O)c2cccs2)c2ccccc2C1=O [CID 11834470] | 211 ± 47 nM | > 5000 nM | – |
| COCCCN1CCN(c2nnc3n2-c2sc(Br)cc2C(c2ccccc2Cl)=NC3)CC1 [CID 11948854] | 607 ± 166 nM | > 5000 nM | – |

| SMILES | EC50 [1, 5] | EC50 [4] | other results |
| --- | --- | --- | --- |
| CCCCCCCCC[n+]1cccc2c3ccccc3ccc21 [CID 11957314] | 205 ± 21 nM | 1140 ± 53 nM | – |
| CC[n+]1c(/C=C/N(C)c2ccccc2)sc2ccc(Cl)cc21.[O-][Cl+3]([O-])([O-])[O-] [CID 11958710] | 174 ± 32 nM | > 5000 nM | – |
| CC(=O)O[C@@H]1C[C@H]2C(C)(C)C(=O)C=C[C@]2(C)[C@H]2CC[C@@]3(C)[C@H](c4ccoc4)OC(=O)[C@H]4O[C@]43[C@@]21C [CID 12004512] | 746 ± 211 nM | > 5000 nM | – |
| CCC(/C=C1\Sc2ccc(OC)cc2N1CCO)=C\c1sc2ccc(OC)cc2[n+]1CCO [CID 12004742] | 491 ± 92 nM | > 5000 nM | – |
| CCCCCCCCCCCCCCCC[n+]1cccc(C(=O)N(CC)CC)c1 [CID 12005597] | 629 ± 107 nM | 4070 ± 721 nM | – |
| Cc1ccc(-c2cc3cccc[n+]3cc2-c2ccc(C)cc2)cc1 [CID 13481921] | 229 ± 34 nM | > 5000 nM | – |
| Nc1nn(-c2ccccc2)c(N)c1N=Nc1ccc2c(c1)OCO2 [CID 15944965] | 849 ± 99 nM | > 5000 nM | – |
| O=C(c1ccccc1)c1c2c(cc3sc4ccccc4[n+]13)-c1cccc3cccc-2c13 [CID 15944971] | 505 ± 54 nM | > 5000 nM | – |
| CCOC(=O)c1c(-c2ccc(F)cc2)csc1NC(=O)CCN1CCOCC1 [CID 15945170] | 178 ± 36 nM | > 5000 nM | – |
| Cc1ccc(-c2cc(-c3ccc(C)cc3)[n+](C)o2)cc1.[O-][Cl+3]([O-])([O-])[O-] [CID 15945780] | 184 ± 12 nM | > 5000 nM | – |
| Cn1cc(CN2CCC(CO)CC2)c(-c2ccc(Oc3ccccc3)cc2)n1 [CID 16187569] | 165 ± 25 nM | > 5000 nM | – |
| O=C(c1ccc(-c2ccccc2)c(F)c1)C1CCCN(CCO)C1 (stereo not drawn) [CID 16187738] | 511 ± 44 nM | > 5000 nM | – |
| CC12CCC(C(=O)N(CCCN3CCN(Cc4ccccc4)CC3)C1=O)C2(C)C (stereo not drawn) [CID 16189740] | 571 ± 113 nM | > 5000 nM | – |
| CC(C)(C)c1ccc(-c2ncccc2O)cc1 [CID 16192568] | 301 ± 50 nM | > 5000 nM | – |
| NCC12CC3CC(C1)CC(c1ccc(Cl)cc1)(C3)C2 [CID 16192591] | 357 ± 56 nM | 3750 ± 623 nM | – |
| COc1ccc(/C=C/c2cc[n+](C(=O)Cc3ccccc3)cc2)cc1 [CID 16196001] | 50 ± 9 nM | > 5000 nM | – |
| C[n+]1c(-c2ccccc2)cc(CCCCc2cc(-c3ccccc3)[n+](C)c(-c3ccccc3)c2)cc1-c1ccccc1.[O-][Cl+3]([O-])([O-])O [CID 16196006] | 703 ± 44 nM | > 5000 nM | – |
| COc1ccc(-[n+]2c(C)cc(/C=C3\Sc4ccccc4N3C)cc2C)cc1 [CID 16196223] | 18 ± 2 nM | 2320 ± 205 nM | – |
| Cc1cc(/C=C2\Sc3ccccc3N2C)cc(C)[n+]1CC1CCCO1 (stereo not drawn) [CID 16196319] | 15 ± 1 nM | > 5000 nM | – |
